The results in this text go back to patent US20050148547A1, “Fungicidal mixtures based on benzamidoxime derivatives and azoles” (priority 2002, published 2005).

SMILES strings stand for the structures.

One assay relates to Puccinia recondita. The assay is described as follows: Curative activity against brown rust of wheat (greenhouse). It is filed as in vivo. The conditions noted are these: wheat seedlings Kanzler, 7 days. As for the experimental part:
The active compounds, separately or together, are formulated as a 10% emulsion in a mixture of 63% by weight of cyclohexanone and 27% by weight of emulsifier, and diluted with water to the desired concentration.
(§1) Evaluation is carried out by determining the infected leaf areas as a percentage. These percentages are converted into efficacies. The efficacy (W) is calculated as follows using Abbot's formula: [formula] • α corresponds to the fungal infection of the treated plants as a % and • β corresponds to the fungal infection of the untreated (control) plants as a %
(§2) An efficacy of 0 means that the infection level of the treated plants corresponds to that of the untreated control plants; an efficacy of 100 means that the treated plants were not infected.
(§3) The expected efficacies of the mixtures of the active compounds were determined using Colby's formula [R. S. Colby, Weeds 15, 20-22 (1967)] and compared with the observed efficacies. Colby's formula: E=x+y−x·y/100 • E expected efficacy, expressed as a % of the untreated control, when using the mixture of the active compounds A and B at the concentrations a and b • x efficacy, expressed as a % of the untreated control, when using active compound A at a concentration of a • y efficacy, expressed as a % of the untreated control, when using active compound B at a concentration of b
Leaves of wheat seedlings of the cultivar “Kanzler”, grown in pots, were dusted with spores of brown rust (Puccinia recondita). The pots were then placed in a chamber with high atmospheric humidity (90-95%), at 20-22° C., for 24 hours. During this time the spores germinated and the germinal tubes penetrated into the leaf tissue. The next day, the infected plants were sprayed to runoff point with an aqueous formulation of active compound prepared from a stock solution consisting of 10% of active compound, 85% of cyclohexanone and 5% of emulsifier. After the spray coating had dried on, the test plants were cultivated in a greenhouse at 20-22° C. and 65-70% relative atmospheric humidity for 7 days. Thereafter, the extent of the rust fungus development on the leaves was determined.
The visually determined values for the percentage of diseased leaf areas were converted into efficacies in % of the untreated control. An efficacy of 0 means the same disease level as in the untreated control, an efficacy of 100 means a disease level of 0%. The expected efficacies for the combinations of active compounds were determined using Colby's formula (Colby. S. R. (Calculating synergistic and antagonistic responses of herbicide Combinations”, Weeds, 15, pp. 20-22, 1967) and compared with the observed efficacies.

Assay [1] deals with Erysiphe [syn. Blumeria] graminis forma specialis. tritici. The assay is described as follows: Activity against mildew of wheat (protective spray, greenhouse). It is filed as in vivo. The conditions noted are these: wheat seedlings Kanzler, 7 days. As for the experimental part: as §1, §2, §3
Leaves of wheat seedlings of the cultivar “Kanzler”, grown in pots, were sprayed to runoff point with an aqueous preparation of active compound which had been prepared from a stock solution comprising 10% of active compound, 85% of cyclohexanone and 5% of emulsifier, and 24 hours after the spray coating had dried on the leaves were dusted with spores of mildew of wheat (Erysiphe [syn. Blumeria] graminis forma specialis. tritici). The test plants were then placed in a greenhouse at 20-24° C. and 60-90% relative atmospheric humidity. After 7 days, the extent of the mildew development was determined visually in % infection of the entire leaf area.
The visually determined values for the percentage of diseased leaf areas were converted into efficacies in % of the untreated control. An efficacy of 0 means the same disease level in the untreated control, an efficacy of 100 means a disease level of 0%. The expected efficacies for the combinations of active compounds were determined using Colby's formula (Colby, S. R. (Calculating synergistic and antagonistic responses of herbicide Combinations”, Weeds, 15, pp. 20-22, 1967) and compared with the observed efficacies.

As to `Fc1ccc(C2(Cn3cncn3)OC2c2ccccc2Cl)cc1` (centres unmarked) [epoxiconazole], the “Efficacy in % of the untreated control” value is reported as 0% with Puccinia recondita (0.015 ppm in the spray liquor); 11% with Puccinia recondita (0.06 ppm in the spray liquor); 56% in the assay with Puccinia recondita (0.25 ppm in the spray liquor); 0% in assay [1] (0.015 ppm in the spray liquor); 0% in assay [1] (0.06 ppm in the spray liquor); 0% in assay [1] (0.125 ppm in the spray liquor). The “Efficacy in % of the untreated control” value in assay [1] (0.25 ppm in the spray liquor) worked out at 29%; in assay [1] (1 ppm in the spray liquor) it was 59%.

Consider `CC1(C)CCC(Cc2ccc(Cl)cc2)C1(O)Cn1cncn1` (centres unmarked) [metconazole], for which the “Efficacy in % of the untreated control” value is on record as 0% with Puccinia recondita (0.015 ppm in the spray liquor); 0% in the assay on Puccinia recondita (0.06 ppm in the spray liquor); 56% in the assay with Puccinia recondita (0.25 ppm in the spray liquor); 0% in assay [1] (0.015 ppm in the spray liquor); 0% in assay [1] (0.06 ppm in the spray liquor); 0% in assay [1] (0.25 ppm in the spray liquor).

`CCCCC(C#N)(Cn1cncn1)c1ccc(Cl)cc1` (centres unmarked) [myclobutanil]: the “Efficacy in % of the untreated control” value (in the assay on Puccinia recondita (0.06 ppm in the spray liquor); with Puccinia recondita (0.25 ppm in the spray liquor); in the assay on Puccinia recondita (1 ppm in the spray liquor); in assay [1] (0.015 ppm in the spray liquor); in assay [1] (0.06 ppm in the spray liquor); in assay [1] (0.25 ppm in the spray liquor)) was 0% throughout.
